The test system of the test is BHK cells expressing JUNO co-incubated with capacitated mouse sperm. The test can be described thus: Sperm-to-BHK fusion and multinucleation. The class given is cell-based, hamster. Particulars: JUNO-transfected BHK cells + mouse sperm. On the procedure: In this study, the present inventors used BHK cells (Cat #CCL-10; ATCC, RRID: CVCL_1915) which were grown and maintained in DMEM containing 10% FBS. Cells were cultured at 37° C. in 5% CO2. Plasmids were transfected into cells using 2 μl jetPRIME (PolyPlus-transfection) per μg of DNA in 100 μl of reaction buffer for every ml of medium.
Sperm were recovered by incising the cauda epididymis, obtained from adult male mice, in 300 μl of mHTF medium (Kito et al. 2004) supplemented with 4 mg/ml of BSA. The sperm were diluted in fresh medium to a concentration of 5×10^6 cells/ml and incubated for 90 min at 37° C. and 5% CO2 to induce capacitation.
BHK cells were grown on 24-well glass bottom tissue-culture plates. 24 h after plating, cells were transfected with 0.25 μg pcDNA 3.1 -EGFP-MBD-nls plasmids and 0.5 μg of either pCI::H2B-RFP or pCI::JUNO::H2B-RFP. […] Multinucleation percentage was determined as the ratio between the number of nuclei in multinucleated cells (NuM) and the total number of nuclei fluorescent cells (NuF), as follows: % of multinucleation=(NuM/NuF)×100. 500 nuclei (NuF) were counted in each independent repetition (experimental point). In some cases, the number of sperm fused was determined by evaluating the transfer of EGFP-MBD-nls signal from the BHK cell to the sperm nuclei (number of fused sperm/500 BHK cells). […]

Structures are written as SMILES.

For `O=c1[nH]c(=O)n([C@H]2C[C@H](O)[C@@H](CO)O2)cc1F` [FdUdr, 5-fluoro-2′-deoxyuridine], the “multinucleation (% of multinucleation)” value (20 μM FdUdr) was “does not inhibit”.

With `C[C@@H]1C[C@@H]([C@H](O)CC2CC(=O)NC(=O)C2)C(=O)[C@@H](C)C1` [cycloheximide], for the setting “4 h, 200 μg/ml cycloheximide vs control”, the “levels of multinucleation (% of multinucleation)” value is listed as “no differences”.

The values above are taken from patent publication US20260133182A1, “METHOD OF DETERMINING FUSOGENIC POTENTIAL OF SPERM AND USE THEREOF IN ASSISTED FERTILIZATION AND DRUG SCREENING” (Technion Research & Development Foundation Limited, priority 2023, published 2026).
